Activity calls are given as the source filed them. The rule behind the calls is not given here.
What was measured:
J774 [1] = assay: Effect on Phorbol 12-myristate 13-acetate-induced macropinocytosis in mouse J774 macrophage cells at 20 uM by video microscopy; format: functional, cell-based
J774 [2] = assay: Effect on Phorbol 12-myristate 13-acetate-induced cellular morphology in mouse J774 macrophage cells at 20 uM by video microscopy; format: functional, cell-based
J774 [3] = assay: Effect on Phorbol 12-myristate 13-acetate-induced membrane ruffling in mouse J774 macrophage cells at 20 uM by video microscopy; format: functional, cell-based
[4] = target: Serine/threonine-protein kinase PknG (Mycobacterium tuberculosis) (UniProt P9WI73); assay: Inhibition of Mycobacterium tuberculosis Protein kinase G by radiometric ATP consumptive assay
Chain of Serine/threonine-protein kinase PknG (Mycobacterium tuberculosis) (P9WI73 whole entry): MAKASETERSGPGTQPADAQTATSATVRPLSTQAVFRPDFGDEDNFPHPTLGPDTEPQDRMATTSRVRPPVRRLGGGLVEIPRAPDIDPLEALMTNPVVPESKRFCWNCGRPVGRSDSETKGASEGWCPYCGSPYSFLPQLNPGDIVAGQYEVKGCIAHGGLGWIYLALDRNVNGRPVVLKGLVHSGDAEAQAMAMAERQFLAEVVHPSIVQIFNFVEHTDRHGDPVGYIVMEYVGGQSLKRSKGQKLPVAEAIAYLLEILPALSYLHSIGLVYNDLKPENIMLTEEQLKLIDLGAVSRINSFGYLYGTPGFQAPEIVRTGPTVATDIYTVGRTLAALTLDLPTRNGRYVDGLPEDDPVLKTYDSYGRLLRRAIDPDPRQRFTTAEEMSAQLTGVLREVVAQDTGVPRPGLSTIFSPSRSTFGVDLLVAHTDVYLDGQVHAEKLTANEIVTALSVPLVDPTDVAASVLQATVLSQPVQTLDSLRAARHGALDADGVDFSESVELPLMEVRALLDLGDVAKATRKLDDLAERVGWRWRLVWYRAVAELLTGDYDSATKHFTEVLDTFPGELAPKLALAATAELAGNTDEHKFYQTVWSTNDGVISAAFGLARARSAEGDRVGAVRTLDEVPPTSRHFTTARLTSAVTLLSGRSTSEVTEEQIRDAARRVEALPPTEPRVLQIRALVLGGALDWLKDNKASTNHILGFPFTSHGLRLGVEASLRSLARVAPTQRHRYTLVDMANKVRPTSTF

**Q.** With NC(=O)c1c(NC(=O)C2CC2)sc2c1CCCC2 as the molecule, how does the Activity (J774 [1]) read?
**A.** inactive

**Q.** What about the Activity (J774 [2]) of the same molecule?
**A.** inactive

**Q.** And the Activity (J774 [3])?
**A.** inactive

**Q.** What about the Activity [4] of the same molecule?
**A.** Active

Reference: ChEMBL document CHEMBL1147038, “Structural basis for the specific inhibition of protein kinase G, a virulence factor of Mycobacterium tuberculosis” (Proc Natl Acad Sci U S A, 2007)
